Usually Ki stands for the equilibrium dissociation constant of an inhibitor or competing ligand from its target.

Ten molecules from patent publication US4968679A, “8-substituted 2-aminotetralins” (Bayer Aktiengesellschaft, priority 1986, dated 1990) can be followed below.

For the experiment, the target named is 5-hydroxytryptamine receptors of the sub-type 1 (5-HT1 receptor). Description: Affinity to the 5-HT1 receptor: receptor binding studies using calf hippocampus membrane preparations, 3H-serotonin as radioactively labelled ligand. The following applies: calf hippocampus membranes; 3H-serotonin radioligand. On the procedure:
In Table 1, as an example, the high affinity of the compounds according to the invention to 5-hydroxytryptamine receptors of the sub-type 1 is shown. The values specified are data which were determined from receptor binding studies using calf hippocampus membrane preparations. 3 H-serotonin was used for this purpose as radioactively labelled ligand.
With `CCCN(CCC)C1CCc2cccc(Cl)c2C1` (stereo not shown) [Example 1, 2-Dipropylamino8-chloro-1,2,3,4-tetrahydronaphthalene], the Ki worked out at 20 nM.
Consider `CCCN(CCC)C1CCc2cccc(Br)c2C1` (stereo not shown) [Example 2, 2-Dipropylamino-8-bromo-1,2,3,4-tetrahydronaphthalene], for which the Ki came to 13 nM.
For the molecule `CCCN(CCC)C1CCc2cccc(C(N)=O)c2C1` (stereo not shown) [Example 6, 2-Dipropylamino-8-carbamoyl-1,2,3,4-tetrahydronaphthalene], the Ki was determined as 7 nM.
As to `CCCCS(=O)(=O)NCCOc1cccc2c1CC(N(CCC)CCC)CC2` (stereo not shown) [Example 26, 2-Dipropylamino-8-(2-butanesulphonamidoethoxy)-1,2,3,4-tetrahydronaphthalene], the Ki turned out to be 17 nM.
Regarding `CCCN(CCC)C1CCc2cccc(OCCNC(=O)OCC)c2C1` (stereo not shown) [Example 28, 2-Dipropylamino-8-(2-ethoxycarbonylamido-ethoxy)1,2,3,4-tetrahydronaphthalene], the Ki was determined as 4 nM.
In the case of `CCCN(CCC)C1CCc2cccc(OCCNC(N)=O)c2C1` (stereo not shown) [Example 30, 2-Dipropylamino-8-ureidoethoxy-1,2,3,4-tetrahydronaphthalene], the Ki was 30 nM.
Then `CCCN(CCC)C1CCc2cccc(OCCNC=O)c2C1` (stereo not shown) [Example 33, 2-Dipropylamino-8-(2-formylamido-ethoxy)-1,2,3,4-tetrahydronaphthalene], with 19 nM.
In the case of `CCCN(CCC)C1CCc2cccc(CCNC(=O)OCc3ccccc3)c2C1` (stereo not shown) [Example 42, 2-Dipropylamino-8-(2-benzyloxycarbonylamido-ethyl)-2,3,4-tetrahydronaphthalene], the Ki was 5 nM.
On to `CCCN(CCC)C1CCc2cccc(OC)c2C1` (stereo not shown) [R^1 =OCH3, R^2 =R^3 =nC3 H7, reference compound], for which the Ki amounted to 3 nM.
For the molecule `CCCN(CCC)C1CCc2cccc(O)c2C1` (stereo not shown) [R^1 =OH, R^2 =R^3 =nC3 H7, reference compound], the Ki amounted to 2 nM.
